The test system of this assay is Vero-E6 cells. The experiment in a line: cells. The format is cell-based. Conditions: for activation at 10 µM: Chlorocebus sabaeus, Vero C1008, 24 h, read-out: PL_Result.

Residues, ends and D or L forms follow the SMILES beside them. *: point of attachment. PhAc = O=C(Cc1ccccc1)*

As to `NC[C@H]1O[C@H](O[C@H]2[C@H](O)[C@@H](O[C@H]3O[C@H](CO)[C@@H](O)[C@H](N)[C@H]3O)[C@H](N)C[C@@H]2N)[C@H](N)C[C@@H]1O` [SPE_K96342952], the activation at 10 µM is -3.75%.
`Nc1ncnc2c1c(-c1ccc(Cl)cc1)nn2-c1cccc(-c2cnnn2Cc2cccc(-c3ccccc3)c2)c1` [SPE_K88154110]: the activation at 10 µM is -7.24%.
Regarding `C[C@@]12C[C@@]3(O)O[C@@H](O1)[C@]1(COC(=O)c4ccccc4)[C@H]3C[C@@]12O[C@@H]1O[C@H](CO)[C@@H](O)[C@H](O)[C@H]1O` [SPE_K83631119], the activation at 10 µM is 4.42%.
For the compound `O=C(O)[C@@H]1C[C@@H](O)CN1` [SPE_A12454076], the activation at 10 µM is -8.44%.
Consider `CC(C)C[C@@H](C(=O)N[C@@H](Cc1ccc(OCc2ccccc2)cc1)C(=O)NC(C)(C)C)N(C)Cc1ccc(C(C)(C)C)cc1` [SPE_K04426574], for which the activation at 10 µM is -3.22%.
`N#Cc1cc(F)cc(-c2nc(-c3ccc(F)cn3)no2)c1` [SPE_K61043483]: the activation at 10 µM was determined as 1.97%.
For the compound `CC(=O)O[C@H]1CC[C@@]2(C)C(=CC[C@@H]3[C@@H]2CC[C@]2(C)C(c4cccnc4)=CC[C@@H]32)C1` [SPE_K24048528], the activation at 10 µM was -6.34%.
As for `Nc1ccc(C(=O)Oc2ccccc2)c(O)c1` [SPE_K73157543], the activation at 10 µM is -14.5%.
As for `CC(=O)OCC(=O)[C@@]1(O)CC[C@H]2[C@@H]3CCC4=CC(=O)C=C[C@]4(C)[C@@]3(F)[C@@H](O)C[C@@]21C` [SPE_K29173907], the activation at 10 µM was -3.84%.
Still for that read-out and setting: the figure for `Clc1ccc(Cn2c(CN3CCCC3)nc3ccccc32)cc1` [SPE_K04704168] is 18%; for `O=C(O)CCCNC(=O)c1cccnc1` [SPE_K56691760] it is 0.477%; for `CCOC(=O)c1cc2ccc(O)cc2oc1=O` [SPE_K53438416] it is -0.478%.
For `C[C@H](NC(=O)/C(C#N)=C/c1cccc(Br)n1)c1ccccc1` [SPE_K05445342], the activation at 10 µM turned out to be 3.2%.
For `C[C@]12CC[C@H]3[C@@H](CCC4=CC(=O)CC[C@@]43C)[C@@H]1CC[C@@H]2C(=O)CO` [SPE_K98521173], the activation at 10 µM is -5.9%.
On the same count and under the same terms, the figure for `COc1cc([S+](C)[O-])ccc1-c1nc2ncccc2[nH]1` (centres unmarked) [SPE_A22081593] is -4.2%; for `CNCCc1ccc(O)c(O)c1` [SPE_K33151569] it is -7.82%; for `COCC(=O)O[C@]1(CCN(C)CCCc2nc3ccccc3[nH]2)CCc2cc(F)ccc2[C@@H]1C(C)C` [SPE_K09549677] it is 97.4%.
Turning to `Cc1cc(C)cc(C(=O)OC2CC3CCC(C2)N3C)c1` (centres unmarked) [SPE_A84389633], the activation at 10 µM turned out to be 9.75%.
Turning to `CCCNC(=O)N1N=C(c2ccc(N)cc2)c2cc3c(cc2C1C)OCO3` (centres unmarked) [SPE_A77218119], the activation at 10 µM was 7.61%.
`C[C@@H](C1=C(CCN(C)C)Cc2ccccc21)c1ccccn1` [SPE_K83192048]: the activation at 10 µM is 11.3%.
In the case of `Oc1cccc(Nc2ccc(Nc3cccc(O)c3)nn2)c1` [SPE_K38687824], the activation at 10 µM was -9.16%.
Same read-out and setting: the figure for `CCn1cnc2c(Nc3cccc(Cl)c3)nc(N[C@@H]3CCCC[C@@H]3N)nc21` [SPE_K56239177] is 0.0914%; for `CC(C)OC(=O)c1cc2c(OCC(O)CNC(C)(C)C)cccc2[nH]1` (centres unmarked) [SPE_A15530910] it is 15.8%.
With `C=C(C)CN1CC[C@]23c4c5ccc(O)c4O[C@H]2c2[nH]c4ccccc4c2C[C@@]3(O)C1C5` [SPE_A75769826], the activation at 10 µM amounted to 35%.
On to `COc1cccc(NC(=O)/C=C/c2ccc(Cl)cc2)c1` [SPE_K61536336], for which the activation at 10 µM is -7.48%.
On to `C=CC(=O)N1CCC(Oc2cc3c(Nc4ccc(Cl)c(Cl)c4F)ncnc3cc2OC)CC1` [SPE_K50010139], for which the activation at 10 µM was -3.41%.
`COc1cccc([C@H](O)C2CCN(CCc3ccc(F)cc3)CC2)c1OC` [SPE_K23647661]: the activation at 10 µM is -9.45%.
For the compound `CC(C)[N+](C)(CCOC(=O)C1c2ccccc2Oc2ccccc21)C(C)C` [SPE_K90885812], the activation at 10 µM was -7.34%.
As for `O=C(Oc1cc(S(=O)(=O)c2ccccc2)ccc1[N+](=O)[O-])c1ccc(Cl)cc1` [SPE_K37933329], the activation at 10 µM is -5.26%.
For the compound `COc1cnc(NS(=O)(=O)c2ccc(N)cc2)nc1` [SPE_K87492696], the activation at 10 µM is -0.356%.
Turning to `CC(CNS(=O)(=O)C(C)C)c1ccc(-c2ccc(C#N)cc2)cc1` (centres unmarked) [SPE_A50062753], the activation at 10 µM was -2.67%.
Take `O=C1OC(c2ccc(O)cc2)(c2ccc(O)cc2)c2ccccc21` [SPE_K19227686]: the activation at 10 µM worked out at 1.99%.
Regarding `Cc1cc2nc3c(=O)[nH]c(=O)nc-3n(C)c2cc1C=O` [SPE_K00486786], the activation at 10 µM was -6.31%.
In the case of `CC(=O)NCCNc1cc(Cl)nn2c(-c3cccc(S(=O)(=O)N(C)C)c3)c(C)nc12` [SPE_K26726854], the activation at 10 µM came out at 0.695%.
On to `CC(C)(C)C(=O)OCC(=O)[C@H]1CC[C@H]2[C@@H]3CCC4=CC(=O)CC[C@]4(C)[C@H]3CC[C@]12C` [SPE_K26024145], for which the activation at 10 µM was -4.69%.
Turning to `CC[C@@]1(O)C(=O)OCc2c1cc1n(c2=O)Cc2cc3c(CN(C)C)c(O)ccc3nc2-1` [SPE_K55696337], the activation at 10 µM is -1.88%.
In the case of `CC(=O)c1ccc2c(c1)N(CCCN1CCN(CCO)CC1)c1ccccc1S2` [SPE_K42938903], the activation at 10 µM is 52.6%.
As to `CCCC(CCC)C(=O)NCc1ccc2c(cnn2-c2ccccc2OC)c1` [SPE_K51265828], the activation at 10 µM is 1.45%.
The same measure, in the same setting: as for `CC(C)(C)NCC(O)c1cc(O)cc(O)c1` (centres unmarked) [SPE_M79902621], the figure is -4.19%; as for `CC(C(=O)O)c1cccc(Oc2ccccc2)c1` (centres unmarked) [SPE_A81129465], 5.17%; as for `CCc1ccc(CCOc2ccc(CC3SC(=O)NC3=O)cc2)nc1` (centres unmarked) [SPE_A48430263], -1.25%.
`O=C(O)c1cc(O)c2c(c1)C(=O)c1cccc(O)c1C2=O` [SPE_K27335680]: the activation at 10 µM is -8.5%.
For `COc1cc2ncn(-c3cc(OCc4ccccc4C(F)(F)F)c(C(N)=O)s3)c2cc1OC` [SPE_K90382497], the activation at 10 µM was -7.16%.
Consider `OC(CN1CCN(c2cccc(Cl)c2)CC1)C(c1ccccc1)c1ccccc1` (centres unmarked) [SPE_A51829654], for which the activation at 10 µM is -10.3%.
The same measure, in the same setting: as for `COc1ccccc1N1CCN(CCN2C(=O)c3ccccc3C(C)(C)C2=O)CC1` [SPE_K93188295], the figure is -15%; as for `COC(=O)CCC(=O)CN` [SPE_K01292611], -7.57%.
As to `CCCCc1nn(-c2ccccc2C(F)(F)F)c(=O)n1Cc1ccc(-c2ccccc2S(=O)(=O)NC(=O)c2sccc2C)cc1` [SPE_K39733634], the activation at 10 µM was -1.37%.
Take `CC(C)C(N)=O` [SPE_K54057105]: the activation at 10 µM was -7.86%.
On to `Nn1cnc2cc3ccccc3cc2c1=O` [SPE_K31329721], for which the activation at 10 µM is -8.33%.
On to `Fc1ccc(Cl)cc1-c1nc(Nc2ccncc2)c2nccnc2n1` [SPE_K24566386], for which the activation at 10 µM was -5.24%.
For `CCOC(=O)CNC(=O)[C@@H]1CCCN1C(=O)Cc1ccccc1` [SPE_K22520627] (PhAc-Pro-Gly-OEt), the activation at 10 µM is -4.57%.
`CC(C)CN(C[C@@H](O)[C@H](Cc1ccccc1)NC(=O)O[C@H]1CCOC1)S(=O)(=O)c1ccc(N)cc1` [SPE_K47827687]: the activation at 10 µM is 0.458%.
Take `CN1C(CSCC(F)(F)F)Nc2cc(Cl)c(S(N)(=O)=O)cc2S1(=O)=O` (centres unmarked) [SPE_A15739803]: the activation at 10 µM came to 0.385%.
As for `CCCCCC(=O)O[C@]1(C(C)=O)CCC2C3CCC4=CC(=O)CC[C@]4(C)C3CC[C@@]21C` (some centres unmarked) [SPE_A29731977], the activation at 10 µM is -5.02%.
With `O=[N+]([O-])O[C@@H]1CO[C@H]2[C@@H]1OC[C@@H]2O` [SPE_K82225283], the activation at 10 µM is -18.1%.
As to `CC(C)S(=O)(=O)NC[C@H](C)c1ccc(-c2ccc(CCNS(C)(=O)=O)cc2)cc1` [SPE_K42981054], the activation at 10 µM is -11.8%.
On to `Cc1cc(N2CCOCC2)ccc1Nc1nc(NC2CCCCC2)c2nc[nH]c2n1` [SPE_K45551181], for which the activation at 10 µM was -0.298%.
In turn, `CCOc1ccccc1O[C@@H](c1ccccc1)[C@@H]1CNCCO1.CCOc1ccccc1O[C@H](c1ccccc1)[C@H]1CNCCO1` [SPE_A43974499] came in with a PL_Result of 14.61.
As to `CCN(CC)CC1CCCCN1CC(=O)N1c2ccccc2C(=O)Nc2cccnc21` (centres unmarked) [SPE_A00520476], the activation at 10 µM is -3.51%.
Consider `COc1cc(/C=C/C(N)=O)cc(OC)c1OC` [SPE_K24507548], for which the activation at 10 µM is -1.45%.
`CCCN(CCC)C(=O)Cc1c(-c2ccc(Cl)cc2)nc2ccc(Cl)cn12` [SPE_K66896751]: the activation at 10 µM is -0.969%.
Regarding `COC(=O)c1ccccc1O` [SPE_K10103010], the activation at 10 µM was found to be 2.4%.
Consider `NCC(=O)Nc1ccc(-n2nc(C(F)(F)F)cc2-c2ccc3c(ccc4ccccc43)c2)cc1` [SPE_K90497590], for which the activation at 10 µM was -14.6%.
For `CCC(C)(C)C(=O)C(=O)N1CCC[C@H]1C(=O)OCCCc1cccnc1` [SPE_K44869961], the activation at 10 µM stood at 2.45%.
Same read-out and setting: as for `CCCCCCCCCCCCCCCCO` [SPE_K37203094], the figure is 1.52%; as for `C[C@]12C=CC(=O)C=C1CC[C@@H]1[C@@H]2CC[C@]2(C)OC(=O)CC[C@@H]12` [SPE_K69636617], -2.05%; as for `CN1C(=O)N(c2cc(Cl)cc(Cl)c2)C(=O)[C@]12CN(Cc1cc(C(=O)O)cs1)C[C@H]2c1ccc(C#N)cc1` [SPE_K20093108], -2.08%.
Same read-out and setting: the figure for `CC[C@]1(O)C[C@H]2C[N@](CCc3c([nH]c4ccccc34)[C@@](C(=O)OC)(c3cc4c(cc3OC)N(C)[C@H]3[C@@](O)(C(N)=O)[C@H](O)[C@]5(CC)C=CCN6CC[C@]43[C@@H]65)C2)C1` [SPE_K59753975] is 7.07%; for `Nc1ncn([C@@H]2O[C@H](CO)[C@@H](O)[C@H]2O)c(=O)n1` [SPE_K55026842] it is -12.3%.
Same read-out and setting: the figure for `C[C@H](CCC(=O)O)[C@H]1CC[C@H]2[C@@H]3C[C@H](O)[C@@H]4C[C@H](O)CC[C@]4(C)[C@H]3CC[C@]12C` [SPE_K49031386] is -3.75%.
Turning to `COc1cccc(-c2cc(NCc3ccc4c(c3)OCO4)nc(N)n2)c1` [SPE_K42624714], the activation at 10 µM is -1.5%.

The values above are taken from PMC13083723 (Patterns, 2026).
